From US20240269086A1, “PERGULARIA TOMENTOSA SILVER NANOPARTICLES” (KING FAISAL UNIVERSITY, priority 2023, published 2024)

What was measured:
Test in all cases: Agar disk diffusion, inhibition zone diameter
Format in all cases: cell-based
B. cereus = conditions: 25 μg/ml, Nil = No growth
From the text: (§1) The agar disk diffusion method was used to investigate the antibacterial activity of the PT-AgNPs against four bacterial strains.

E. coli = conditions: 25 μg/ml, Nil = No growth
From the text: as §1

S. aureus = conditions: 25 μg/ml, Nil = No growth
From the text: as §1

S. enteritidis = conditions: 6.25 μg/ml (by grid column), Nil = No growth
From the text: as §1

Measured: IZD (mm)

O=C(N[C@H](CO)[C@H](O)c1ccc([N+](=O)[O-])cc1)C(Cl)Cl [Chloramphenicol]
Nil: B. cereus | E. coli | S. aureus | S. enteritidis
